Assay results as given in the supplement of paper PMC10307832.

Each cell line was assayed with COc1cccc2cc(-c3nc([C@H]4CC[C@H](C(=O)O)CC4)n4ncnc(N)c34)[nH]c12 [OSI-027] (assay: relative viability (nuclei count vs DMSO), 5 days (fraction); higher = more cells survive). Settings: 0.5 µM; anchor plate.
Outline: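 In 1536-well plates, lung cancer cell lines rested overnight at 37 °C before five library-drug doses (not always all listed), √10 apart, were pinned onto vehicle-anchored plates. Nuclei were counted with MetaXpress from 4× Hoechst images taken after 5 days without medium change. Viability compares treated-well with vehicle-well nuclei as a median over plates, and plates needed control CV below 25% plus at least one doubling to pass.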

Cell Line	relative viability
NCI-H1563	0.769
NCI-H596	0.704

Same assay, conditions: 1 µM

Cell Line	relative viability
NCI-H2126	0.664
EPLC-272H	0.439
NCI-H1755	0.78
NCI-H2023	0.377
NCI-H1623	0.427
NCI-H1650	0.421
NCI-H1793	0.295
NCI-H2342	0.649
H3255	0.638
NCI-H1975	0.622
PC-14	0.765
NCI-H1299	0.825
NCI-H1437	0.565
HOP-62	0.75
HCC-44	0.739
BEN	0.299
LOU-NH91	0.591
NCI-H661	0.581

Cell Line	relative viability
NCI-H1651	0.723
PC-3 [JPC-3]	0.698
SW 1573	0.655
LK-2	0.191
NCI-H2405	0.518
NCI-H1703	0.434
NCI-H1648	0.532
NCI-H1993	0.438
ChaGo-K-1	0.859
NCI-H1355	0.444
HCC-366	0.803
ABC-1	0.547
Calu-6	0.731
NCI-H1563	0.75
EBC-1	0.361
A549	0.34
IA-LM	0.151
NCI-H596	0.723

These cell lines were tested with COc1cccc2cc(-c3nc([C@H]4CC[C@H](C(=O)O)CC4)n4ncnc(N)c34)[nH]c12 [OSI-027] + CC(=O)Nc1cccc(-n2c(=O)n(C3CC3)c(=O)c3c(Nc4ccc(I)cc4F)n(C)c(=O)c(C)c32)c1 [Trametinib] (partner 0.02 µM) (assay: relative viability (nuclei count vs DMSO), 5 days (fraction); higher = more cells survive). Settings: first compound 0.01 µM.
Outline: (§1)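 Relative viability was taken as the ratio of nuclei in treated wells to nuclei in vehicle wells. Lung cancer cell lines in 1536-well plates received compounds by pin tool one day after seeding, either one drug alone or a fixed anchor-drug dose plus five library-drug doses (not always all listed) in √10 steps. Nuclei were counted on 4× images after 5 days of treatment, and values are medians of duplicate plates.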

Cell Line	relative viability
NCI-H2126	0.54
EPLC-272H	0.293
NCI-H1755	0.738
NCI-H2023	0.645
NCI-H1650	0.485
NCI-H1793	0.489
NCI-H2342	0.802
H3255	0.527
NCI-H1975	0.278
PC-14	0.793
NCI-H1437	0.43
HOP-62	0.383
HCC-44	1.04
BEN	0.9
LOU-NH91	0.766
NCI-H661	0.545
NCI-H1651	0.829
PC-3 [JPC-3]	0.616
SW 1573	0.711
LK-2	0.766
NCI-H2405	0.643
NCI-H1648	0.481
NCI-H1993	0.474
ChaGo-K-1	0.919
NCI-H1355	0.401
HCC-366	0.333
NCI-H596	0.738

Same assay, conditions: first compound 0.03162 µM

Cell Line	relative viability
NCI-H2126	0.593
EPLC-272H	0.278
NCI-H1755	0.759
NCI-H2023	0.506
NCI-H1650	0.504
NCI-H1793	0.431
NCI-H2342	0.816
H3255	0.594
NCI-H1975	0.386
PC-14	0.934
NCI-H1437	0.406
HOP-62	0.347
HCC-44	1.07
BEN	0.787
LOU-NH91	0.785
NCI-H661	0.479
NCI-H1651	0.736
PC-3 [JPC-3]	0.651
SW 1573	0.543
LK-2	0.578
NCI-H2405	0.663
NCI-H1648	0.449
NCI-H1993	0.548
ChaGo-K-1	0.903
NCI-H1355	0.458
HCC-366	0.433
NCI-H596	0.792

Same assay, conditions: first compound 0.1 µM

Cell Line	relative viability
NCI-H2126	0.526
EPLC-272H	0.254
NCI-H1755	0.761
NCI-H2023	0.435
NCI-H1650	0.614
NCI-H1793	0.35
NCI-H2342	0.724
H3255	0.514
NCI-H1975	0.3
PC-14	0.71
NCI-H1437	0.493
HOP-62	0.375
HCC-44	1.05
BEN	0.709
LOU-NH91	0.66
NCI-H661	0.468
NCI-H1651	0.838
PC-3 [JPC-3]	0.599
SW 1573	0.491
LK-2	0.594
NCI-H2405	0.597
NCI-H1993	0.523
ChaGo-K-1	0.833
NCI-H1355	0.341
HCC-366	0.454
NCI-H596	0.914

Same assay, conditions: first compound 0.3162 µM

Cell Line	relative viability
NCI-H2126	0.447
EPLC-272H	0.236
NCI-H1755	0.654
NCI-H2023	0.388
NCI-H1650	0.6
NCI-H1793	0.344
NCI-H2342	0.687
H3255	0.476
NCI-H1975	0.294
PC-14	0.649
NCI-H1437	0.39
HOP-62	0.329
HCC-44	0.942
BEN	0.527
LOU-NH91	0.591
NCI-H661	0.432
NCI-H1651	0.805
PC-3 [JPC-3]	0.603
SW 1573	0.409
LK-2	0.406
NCI-H2405	0.471
NCI-H1648	0.49
NCI-H1993	0.412
ChaGo-K-1	0.882
NCI-H1355	0.3
HCC-366	0.282
NCI-H596	0.758

Same assay, conditions: first compound 1 µM

Cell Line	relative viability
NCI-H2126	0.537
EPLC-272H	0.239
NCI-H1755	0.501
NCI-H2023	0.272
NCI-H1650	0.408
NCI-H1793	0.21
NCI-H2342	0.556
H3255	0.414
NCI-H1975	0.264
PC-14	0.282
NCI-H1437	0.248
HOP-62	0.294
HCC-44	0.795
BEN	0.505
LOU-NH91	0.579
NCI-H661	0.307
NCI-H1651	0.607
PC-3 [JPC-3]	0.437
SW 1573	0.411
LK-2	0.221
NCI-H2405	0.373
NCI-H1648	0.321
NCI-H1993	0.505
ChaGo-K-1	0.661
NCI-H1355	0.252
HCC-366	0.195
NCI-H596	0.538

Each cell line was assayed with Cc1nc(NC(=O)N2CCC[C@H]2C(N)=O)sc1-c1ccnc(C(C)(C)C(F)(F)F)c1 [Alpelisib] + CC(=O)c1c(C)c2cnc(Nc3ccc(N4CCNCC4)cn3)nc2n(C2CCCC2)c1=O [Palbociclib] (partner 0.5 µM) in the same assay as above. Settings: first compound 0.04 µM.
Outline: as §1

Cell Line	relative viability
NCI-H2126	0.363
EPLC-272H	0.289
NCI-H1755	0.417
NCI-H2023	0.312
NCI-H1650	0.423
NCI-H1793	0.367
NCI-H2342	0.57
H3255	0.333
NCI-H1975	0.628
PC-14	0.556
NCI-H1437	0.327
HOP-62	0.43
HCC-44	0.98
BEN	0.485
LOU-NH91	0.586
NCI-H661	0.365
NCI-H1651	0.512
PC-3 [JPC-3]	0.591
SW 1573	0.409
LK-2	0.653
NCI-H2405	0.515
NCI-H1648	0.259
NCI-H1993	0.549
ChaGo-K-1	0.958
NCI-H1355	0.403
HCC-366	0.421
ABC-1	0.653

Same assay, conditions: first compound 0.1265 µM

Cell Line	relative viability
NCI-H2126	0.334
EPLC-272H	0.333
NCI-H1755	0.41
NCI-H2023	0.309
NCI-H1650	0.275
NCI-H1793	0.287
NCI-H2342	0.509
H3255	0.321
NCI-H1975	0.552
PC-14	0.499
NCI-H1437	0.314
HOP-62	0.425
HCC-44	0.921
BEN	0.504
LOU-NH91	0.511
NCI-H661	0.367
NCI-H1651	0.514
PC-3 [JPC-3]	0.556
SW 1573	0.401
LK-2	0.645
NCI-H2405	0.536
NCI-H1648	0.304
NCI-H1993	0.637
ChaGo-K-1	0.965
NCI-H1355	0.412
HCC-366	0.356
ABC-1	0.611

Same assay, conditions: first compound 0.4 µM

Cell Line	relative viability
NCI-H2126	0.345
EPLC-272H	0.324
NCI-H1755	0.458
NCI-H2023	0.326
NCI-H1650	0.403
NCI-H1793	0.332
NCI-H2342	0.518
H3255	0.333
NCI-H1975	0.597
PC-14	0.602
NCI-H1437	0.356
HOP-62	0.508
HCC-44	0.988
BEN	0.516
LOU-NH91	0.547
NCI-H661	0.411
NCI-H1651	0.594
PC-3 [JPC-3]	0.581
SW 1573	0.366
LK-2	0.499
NCI-H2405	0.52
NCI-H1648	0.241
NCI-H1993	0.647
ChaGo-K-1	1
NCI-H1355	0.377
HCC-366	0.36
ABC-1	0.732

Same assay, conditions: first compound 1.265 µM

Cell Line	relative viability
NCI-H2126	0.359
EPLC-272H	0.291
NCI-H1755	0.371
NCI-H2023	0.258
NCI-H1650	0.29
NCI-H1793	0.324
NCI-H2342	0.467
H3255	0.296
NCI-H1975	0.323
PC-14	0.464
NCI-H1437	0.264
HOP-62	0.309
HCC-44	0.881
BEN	0.439
LOU-NH91	0.511
NCI-H661	0.412
NCI-H1651	0.483
PC-3 [JPC-3]	0.521
SW 1573	0.201
LK-2	0.322
NCI-H2405	0.43
NCI-H1648	0.234
NCI-H1993	0.501
ChaGo-K-1	0.747
NCI-H1355	0.341
HCC-366	0.247
ABC-1	0.385

Same assay, conditions: first compound 4 µM

Cell Line	relative viability
NCI-H2126	0.334
EPLC-272H	0.267
NCI-H1755	0.382
NCI-H2023	0.223
NCI-H1650	0.298
NCI-H1793	0.245
NCI-H2342	0.414
H3255	0.264
NCI-H1975	0.319
PC-14	0.497
NCI-H1437	0.314
HOP-62	0.417
HCC-44	0.913
BEN	0.447
LOU-NH91	0.496
NCI-H661	0.359
NCI-H1651	0.484
PC-3 [JPC-3]	0.559
SW 1573	0.284
LK-2	0.314
NCI-H2405	0.462
NCI-H1648	0.237
NCI-H1993	0.465
ChaGo-K-1	0.584
NCI-H1355	0.267
HCC-366	0.162
ABC-1	0.454
